The values below come from patent US5348953A, “Substituted azetidinones as anti-inflammatory and antidegenerative agents” (Merck & Co., Inc., priority 1992, dated 1994).

Structures are written as SMILES.

The target of one assay is T1, Human Polymorphonuclear Leukocyte Elastase (Homo sapiens, UniProt P08246).
T1 construct: Crude extract of human polymorphonuclear leukocytes (PMN) containing elastase activity; from tissue; host or cells: human polymorphonuclear leukocytes (crude extract)
T1 sequence (P08246 30-267): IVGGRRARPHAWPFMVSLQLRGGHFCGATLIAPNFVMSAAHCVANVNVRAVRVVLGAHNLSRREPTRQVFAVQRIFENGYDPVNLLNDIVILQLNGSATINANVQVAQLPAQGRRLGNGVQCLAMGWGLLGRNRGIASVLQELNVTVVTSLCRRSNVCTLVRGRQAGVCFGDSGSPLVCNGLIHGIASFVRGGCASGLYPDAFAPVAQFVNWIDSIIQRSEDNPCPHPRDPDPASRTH
In words: Inhibition of human polymorphonuclear leukocyte elastase via hydrolysis of Boc-AAPAN or Boc-AAPVN. To be noted: pH 7.5; second order rate constant for inactivation; Formula A, M n-propyl, R2 4-methyl (TABLE 1); read-out: kobs /[I]. The assay is classed as biochemical. How it is done:
Enzyme Assays for the Inhibition of Human Polymorphonuclear Leukocyte
Elastase Via Hydrolysis of
N-t-Boc-alanyl-alanyl-prolylalanine-p-nitroanilide (Boc-AAPAN) or
N-t-Boc-alanyl-prolylvaline-p-nitroanilide (Boc-AAPVN) Reagent:
0.05M TES (N-tris[hydroxymethyl]methyl-2-amino-ethanesulfonic acid) Buffer, pH 7.5.
0.2 mM Boc-AAPAN or Boc-AAPVN.
To prepare substrate, the solid was first dissolved in 10.0 ml DMSO. Buffer at pH 7.5 was then added to a final volume of 100 ml.
Crude extract of human polymorphonuclear leukocytes (PMN) containing elastase activity.
Inhibitors (azetidinones) to be tested dissolved in DMSO just before use.
To 1.0 ml of 0.2 mM Boc-AAPAN in a cuvette, 0.01-0.1 ml of DMSO with or without inhibitor was added. After mixing, a measurement was taken at 410 mμ to detect any spontaneous hydrolysis due to presence of test compound. 0.05 Milliliters of PMN extract was then added and the ΔOD/min at 410 mμ was measured and recorded. Beckman model 35 spectrophotometer was used.
Results in Table I were reported as ID50, effective dosage in micrograms per milliliter (μg/ml) for 50% inhibition of the enzyme activity 2 minutes after zero time.
Results were also expressed as Ki, the micromolar concentration of the inhibitor (μM) giving 50% of the control enzyme activity; or as ^k obs/I which is the second order rate constant in per mole per second for inactivation of the enzyme.
The elastase activity in the crude PMN extract may vary from one preparation to another. A control of each new batch is run, and the volume added in the assay procedure is adjusted according to activity.
For `CCC[C@@H](NC(=O)N1C(=O)C(CC)(CC)[C@@H]1OCC(=O)N(CC)CCN(CCOCC)C(C)C)c1ccc(C)cc1`, the kinact/KI was 195000 M⁻¹ s⁻¹.

As to `CCC[C@@H](NC(=O)N1C(=O)C(CC)(CC)[C@@H]1OCC(=O)N1CCOCC1)c1ccc(C)cc1`, the kinact/KI stood at 400000 M⁻¹ s⁻¹.

Consider `CCC[C@@H](NC(=O)N1C(=O)C(CC)(CC)[C@@H]1OCC(=O)N(C)CCN1C(C)CCCC1C)c1ccc(C)cc1` (stereo partly drawn) [2-(S)-[2-[[2-(2,6-dimethylpiperidin-1-yl)ethyl]-methylamino]-2-oxoethoxy]-3,3-diethyl-N-[1-(R)-(4-methylphenyl)butyl] -4-oxo-1-azetidinecarboxamide], for which the kinact/KI stood at 80000 M⁻¹ s⁻¹.

With `CCC[C@@H](NC(=O)N1C(=O)C(CC)(CC)[C@@H]1OCC(=O)N(C)CCN(CCOCC)C(C)C)c1ccc(C)cc1` [2-(S)-[2-[[2-((2-Ethoxyethyl)-isopropylamino)ethyl]methylamino]-2-oxoethoxy]-3,3-diethyl-N-[1-(R)-(4-methylphenyl)butyl]-4-oxo-1-azetidinecarboxamide], the kinact/KI is 140000 M⁻¹ s⁻¹.

Turning to `CCC[C@@H](NC(=O)N1C(=O)C(CC)(CC)[C@@H]1OCC(=O)N(CCC)CCN(CCOCC)C(C)C)c1ccc(C)cc1` [2-(S)-[2-[[2-((2-Ethoxyethyl)-isopropylamino)ethyl]propylamino]-2-oxoethoxy]-3,3-diethyl-N-[1-(R)-(4-methylphenyl)butyl]-4-oxo-1-azetidinecarboxamide], the kinact/KI came to 185000 M⁻¹ s⁻¹.

Regarding `CCC[C@@H](NC(=O)N1C(=O)C(CC)(CC)[C@@H]1OCC(=O)N(CCN(CC)CCOC)C(C)C)c1ccc(C)cc1` [2-(S)-[2-[[2-((2-Methoxyethyl)-ethylamino)ethyl]-isopropylamino]-2-oxoethoxy]-3,3-diethyl-N-[1-(R)-(4-methylphenyl)butyl]-4-oxo-1-azetidinecarboxamide], the kinact/KI is 250000 M⁻¹ s⁻¹.

Consider `CCC[C@@H](NC(=O)N1C(=O)C(CC)(CC)[C@@H]1OCC(=O)N(CC)CCN(CC)CCOC)c1ccc(C)cc1` [2-(S)-[2-[[2-((2-Methoxyethyl)-ethylamino)ethyl]ethylamino]-2-oxoethoxy]-3,3-diethyl-N-[1-(R)-(4-methylphenyl)butyl]-4-oxo-1-azetidinecarboxamide], for which the kinact/KI was 185000 M⁻¹ s⁻¹.

With `CCC[C@@H](NC(=O)N1C(=O)C(CC)(CC)[C@@H]1OCC(=O)N(C)CCN(CC)CCOC)c1ccc(C)cc1` [2-(S)-[2-[[2-((2-Methoxyethyl)-ethylamino)ethyl]methylamino]-2-oxoethoxy]-3,3-diethyl-N-[1-(R)-(4-methylphenyl)butyl]-4-oxo-1-azetidinecarboxamide], the kinact/KI stood at 110000 M⁻¹ s⁻¹.

Consider `CCC[C@@H](NC(=O)N1C(=O)C(CC)(CC)[C@@H]1OCC(=O)N(C)CCN(CCOC)CCOC)c1ccc(C)cc1` [2-(S)-[2-[[2-(Di-(2-methoxyethyl)amino)ethyl]methylamino]-2-oxoethoxy]-3,3-diethyl-N-[1-(R)-(4-methylphenyl)butyl]-4-oxo-1-azetidinecarboxamide], for which the kinact/KI came to 165000 M⁻¹ s⁻¹.

As to `CCC[C@@H](NC(=O)N1C(=O)C(CC)(CC)[C@@H]1OCC(=O)N(CC)CCN1CCOCC1)c1ccc(C)cc1` [2-(S)-[2-[[2-(Morpholin-1-yl)ethyl]ethylamino]-2oxoethoxy]-3,3-diethyl-N-[1-(R)-(4-methylphenyl)butyl]-4-oxo-1-azetidinecarboxamide], the kinact/KI was found to be 245000 M⁻¹ s⁻¹.

As for `CCC[C@@H](NC(=O)N1C(=O)C(CC)(CC)[C@@H]1OCC(=O)N(CC)CCN(CC)CC)c1ccc(C)cc1` [Y=N(Et)CH2 CH2; R5=H; R7=Et; R8=Et, 2-(S)-[2-[[2-(Diethylamino)ethyl]ethylamino]-2-oxoethoxy]-3,3-di ethyl-N-[1-(R)-(4-methylphenyl)butyl]-4-oxo-1-azetidinecarboxamide], the kinact/KI turned out to be 177000 M⁻¹ s⁻¹.

As to `CCC[C@@H](NC(=O)N1C(=O)C(CC)(CC)[C@@H]1OCC(=O)N(CC)CCN(C(C)C)C(C)C)c1ccc(C)cc1` [Y=N(Et)CH2 CH2; R5=H; R7=iPr; R8=iPr, 2-(S)-[2-[[2-(Diisopropylamino)ethyl]ethylamino]-2-oxoethoxy]-3,3-diethyl-N-[1-(R)-(4-methylphenyl)butyl]-4-oxo-1-azetidinecarboxamide], the kinact/KI turned out to be 189000 M⁻¹ s⁻¹.

Turning to `CCC[C@@H](NC(=O)N1C(=O)C(CC)(CC)[C@@H]1O[C@@H](C)C(=O)N(CC)CCN(C)C)c1ccc(C)cc1` [Y=N(Et)CH2 CH2; R5=Me; R7=Me; R8=Me, 2-(S)-[2-[[2-(Dimethylamino)ethyl]ethylamino]-2-oxo-(1-(S)-methyl)ethoxy]-3,3-diethyl-N-[1-(R)-(4-methylphenyl)butyl]-4-oxo-1-azetidinecarboxamide], the kinact/KI worked out at 1.77e+06 M⁻¹ s⁻¹.

In the case of `CCC[C@@H](NC(=O)N1C(=O)C(CC)(CC)[C@@H]1OCC(=O)N(C)CCCN(C)C)c1ccc(C)cc1` [Y=N(Me)CH2 CH2 CH2; R5=H; R7=Me; R8=Me, 2-(S)-[2-[[3-(Dimethylamino)propyl]methylamino]-2-oxoethoxy]-3,3-diethyl-N-[1-(R)-(4-methylphenyl)butyl]-4-oxo-1-azetidinecarboxamide], the kinact/KI stood at 115000 M⁻¹ s⁻¹.

Consider `CCC[C@@H](NC(=O)N1C(=O)C(CC)(CC)[C@@H]1OCC(=O)N(C)CCN(CC)CC)c1ccc(C)cc1` [Y=N(Me)CH2 CH2; R5=H; R7=Et; R8=Et, 2-(S)-[2-[[2-(Diethylamino)ethyl]methylamino]-2oxoethoxy]-3,3-diethyl-N-[1-(R)-(4-methylphenyl)butyl]-4-oxo-1-azetidinecarboxamide], for which the kinact/KI came out at 150000 M⁻¹ s⁻¹.

The assay is the same for the next values; noted with them: pH 7.5; second order rate constant; Formula A, M n-propyl, R2 3,4-methylenedioxy; read-out: kobs /[I].
Consider `CCC[C@@H](NC(=O)N1C(=O)C(CC)(CC)[C@@H]1OCC(=O)N(CC)CCN(C)CCOC)c1ccc2c(c1)OCO2` [2-(S)-[2-[[2-(2-Methoxyethyl)methylamino)ethy]ethylamino]-2-oxoethoxy]-3,3-diethyl-N-[1-(R)-(3,4-methylenedioxyphenyl)butyl]-4-oxo-1-azetidine carboxamide], for which the kinact/KI was found to be 450000 M⁻¹ s⁻¹.

In the case of `CCC[C@@H](NC(=O)N1C(=O)C(CC)(CC)[C@@H]1OCC(=O)N(CC)CCN(C)C)c1ccc2c(c1)OCO2` [2-(S)-[2-[[2-(Dimethylamino)ethy]-ethylamino]-2-oxoethoxy]-3,3-diethyl-N-[1-(R)-(3,4-methylenedioxyphenyl)butyl]-4-oxo-1-azetidinecarboxamide], the kinact/KI came to 425000 M⁻¹ s⁻¹.

For `CCC[C@@H](NC(=O)N1C(=O)C(CC)(CC)[C@@H]1OCC(=O)N(CCN(C)C)C(C)C)c1ccc2c(c1)OCO2` [2-(S)-[2-[[2-(Dimethylamino)ethyl]-isopropylamino]-2-oxoethoxyl]-3,-3-diethyl-N-[1-(R)-(3,4-methylenedioxyphenyl)-butyl]-4-oxo-1-azetidinecarboxamide], the kinact/KI is 500000 M⁻¹ s⁻¹.

The same assay, now with this note: pH 7.5; second order rate constant; Formula A, M n-propyl, R4 piperazine amide with substituent Z; read-out: kobs /[I].
As to `CCC[C@@H](NC(=O)N1C(=O)C(CC)(CC)[C@@H]1OCC(=O)N1CCN(C2CC2)CC1)c1ccc2c(c1)OCO2` [2-(S)-[2-[2-(4-Cyclopropyl)piperazin-1-yl]-2-oxoethoxy]-3,3-diethyl-N-[1-(R)-(3,4-methylenedioxyphenyl)-butyl]-4-oxo-1-azetidinecarboxamide], the kinact/KI worked out at 560000 M⁻¹ s⁻¹.

Turning to `CCC[C@@H](NC(=O)N1C(=O)C(CC)(CC)[C@@H]1OCC(=O)N1CCN(C)CC1)c1ccc2c(c1)OCO2` [R2=3,4-methylenedioxy-; R5=H; Z=--Me, 2-(S)-[2-[2-(4-Methyl)piperazin-1-yl]-2-oxoethoxy]-3,-3-diethyl-N-[1-(R)-(3,4-methylenedioxyphenyl)-butyl]-4-oxo-1-azetidinecarboxamide], the kinact/KI was determined as 530000 M⁻¹ s⁻¹.

`CCC[C@@H](NC(=O)N1C(=O)C(CC)(CC)[C@@H]1OCC(=O)N1CCNCC1)c1ccc2c(c1)OCO2` [R2=3,4-methylenedioxy-; R5=H; Z=H]: the kinact/KI worked out at 515000 M⁻¹ s⁻¹.

For the molecule `CCC[C@@H](NC(=O)N1C(=O)C(CC)(CC)[C@@H]1OCC(=O)N1CCN(CCO)CC1)c1ccc(C)cc1` [R2=4-Me; R5=H; Z=CH2 CH2 OH, 2-(S)-[2-[2-(4-(2-Hydroxy)ethyl)piperazin-1-yl]-2-oxoethoxy]-3,-3-diethyl-N[1-(R)-(4-methylphenyl)-butyl]-4-oxo-1-azetidinecarboxamide], the kinact/KI came out at 300000 M⁻¹ s⁻¹.

As to `CCC[C@@H](NC(=O)N1C(=O)C(CC)(CC)[C@@H]1OCC(=O)N1CCNCC1)c1ccc(C)cc1` [R2=4-Me; R5=H; Z=H], the kinact/KI came out at 250000 M⁻¹ s⁻¹.

As to `CCC[C@@H](NC(=O)N1C(=O)C(CC)(CC)[C@@H]1OCC(=O)N1CCN(C2CC2)CC1)c1ccc(C)cc1` [R2=4-Me; R5=H; Z=cyclopropyl, 2-(S)-[2-[2-(4-Cyclopropyl)piperazin-1-yl]-2-oxoethoxy]-3,-3-diethyl-N-[1-(R)-(4-methylphenyl)-butyl]-4-oxo-1-azetidinecarboxamide], the kinact/KI came out at 225000 M⁻¹ s⁻¹.
